pIC50: −log10 of the molar value.
Each compound was assayed against T1, human recombinant LPA2 expressed in CHO cells (Homo sapiens, UniProt Q9HBW0) (assay: FLIPR calcium mobilization assay, LPA2 antagonism in CHO-hLPA2 cells). Settings: LPA EC80 stimulation, potency class, read-out: LPA2 IC50.
T1 construct: expressed in transfected cells; host or cells: CHO cells (CHO-hLPA2 cell line)
Assay type: cell-based
Description: The effectiveness of compounds of the present invention as LPA2 antagonist can be determined at the human recombinant LPA2 expressed in CHO cells, using a FLIPR assay in 384 well format.
CHO-hLPA2 cell lines are cultured in a humidified incubator at 5% CO2 in DMEM/F-12 (1:1) MIXTURE with 2 mM Glutamax, supplemented with 10% of Foetal Bovine Serum, 1 mM Sodium Pyruvate, 11 mM Hepes and 1× Penicillin/Streptomycin. CHO hLPA2 cells are seeded into black walled clear-bottom 384-well plates (#781091, Greiner Bio-One GmbH) at a density of 7,500 cells per well in 50 μl culture media and grown overnight in a 37° C. humidified CO2-incubator. Serial dilutions (1:3 or 1:4, 11 points CRC) of compounds are performed in 100% DMSO at 200× the final concentration. The compounds are diluted 1:50 prior to the experiment with Assay Buffer (20 mM HEPES, 145 mM NaCl, 5 mM KCl, 5.5 mM glucose, 1 mM MgCl2 and 2 mM CaCl2), pH 7.4 containing 0.01% Pluronic F-127) to obtain a solution corresponding to […] the final concentration in the assay (4×, 2% DMSO). The final concentration of DMSO in the assay will be 0.5% in each well. Medium is removed by aspiration and cells are then incubated with 30 μl of a loading solution containing 5 μM of the cytoplasmic Ca2+ indicator Cal-520 AM in Assay Buffer containing 2.5 mM probenecid for 30 min at 37° C. incubator (cell loading). The loaded cell plates are transferred into the FLIPR instrument and calcium responses are monitored during the on-line addition protocols. For testing of compounds, after the cell loading, 10 μl/well of 4× antagonists' solution was added onto the cells. After 30 min pre-incubation (at 37° C.), 10 μl/well of 5× concentrated LPA EC80 was added and Ca2+ mobilization responses was followed during the on-line addition protocol. Intracellular peak fluorescence values subtracted by baseline fluorescence are exported and analysed to determine IC50 values, respectively. The calcium response is expressed as percentage of the maximal inhibition of the EC80 agonist response.
The raw data obtained in unstimulated controls (DMSO, no LPA) are set as “100% inhibition”, while the raw data obtained in negative controls, i.e. in the absence of compounds and stimulating with LPA EC80, are set as “0% inhibition”.
The raw data (peak height expressed as relative fluorescence units) are normalized and transformed into “percent of inhibition”. Curve fitting and pIC50 (−Log IC50) estimations are carried out using a four-parameter logistic model using XLfit Software.

T1 sequence (Q9HBW0 whole entry): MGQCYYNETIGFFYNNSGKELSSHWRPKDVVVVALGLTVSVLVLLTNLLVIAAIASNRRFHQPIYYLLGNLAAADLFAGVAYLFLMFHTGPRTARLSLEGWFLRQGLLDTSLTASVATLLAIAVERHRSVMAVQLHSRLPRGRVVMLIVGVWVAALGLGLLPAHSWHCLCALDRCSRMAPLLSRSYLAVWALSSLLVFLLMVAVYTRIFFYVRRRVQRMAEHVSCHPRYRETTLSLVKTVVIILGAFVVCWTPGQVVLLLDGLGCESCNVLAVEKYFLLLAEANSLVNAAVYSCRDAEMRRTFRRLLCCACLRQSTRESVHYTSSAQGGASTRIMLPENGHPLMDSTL

Compared with COC(=O)Nc1nc(C)c(S(=O)(=O)N2CCN(C[C@H](C)NC(=O)c3cccc(-c4sc(C)nc4C)c3)CC2)s1 [Example 1, methyl N-[5-({4-[(2S)-2-{[3-(2,4-dimethyl-1,3-thiazol-5-yl)phenyl]formamido}propyl]piperazin-1-yl}sulfonyl)-4-methyl-1,3-thiazol-2-yl]carbamate], COC(=O)Nc1nc(C)c(S(=O)(=O)N2CCN(C[C@H](C)NC(=O)c3cc(-c4sc(C)nc4C)ccc3F)CC2)s1 [Example 5, methyl N-[5-({4-[(2S)-2-{[5-(2,4-dimethyl-1,3-thiazol-5-yl)-2-fluorophenyl]formamido}propyl]piperazin-1-yl}sulfonyl)-4-methyl-1,3-thiazol-2-yl]carbamate] is lower in pIC50: greater than 8.00 for the first, 7.00 to 8.00 for the second. The first is the more potent here.

Cc1cc(-c2ccc(S(=O)(=O)N3CCN(C[C@H](C)NC(=O)c4cc(-c5sc(C)nc5C)ccc4F)CC3)s2)on1 [Example 2, 5-(2,4-dimethyl-1,3-thiazol-5-yl)-2-fluoro-N-[(2 S)-1-(4-{[5-(3-methyl-1,2-oxazol-5-yl)thiophen-2-yl]sulfonyl}piperazin-1-yl)propan-2-yl]benzamide] and Cc1cc(-c2ccc(S(=O)(=O)N3CCN(C[C@H](C)NC(=O)c4cc(-c5sc(C)nc5C)ccn4)CC3)s2)on1 [Example 3, 4-(2,4-dimethyl-1,3-thiazol-5-yl)-N-[(2S)-1-(4-{[5-(3-methyl-1,2-oxazol-5-yl)thiophen-2-yl]sulfonyl}piperazin-1-yl)propan-2-yl]pyridine-2-carboxamide] fall in the same range of pIC50: 7.00 to 8.00 for the first, 7.00 to 8.00 for the second.

COC(=O)Nc1nc(C)c(S(=O)(=O)N2CCN(C[C@H](C)NC(=O)c3cc(-c4sc(C)nc4C)ccn3)CC2)s1 [Example 4, methyl N-[5-({4-[(2S)-2-{[4-(2,4-dimethyl-1,3-thiazol-5-yl)pyridin-2-yl]formamido}propyl]piperazin-1-yl}sulfonyl)-4-methyl-1,3-thiazol-2-yl]carbamate] and COC(=O)Nc1nc(C)c(S(=O)(=O)N2CCN(C[C@H](C)NC(=O)c3cccc(-c4sc(C)nc4C)n3)CC2)s1 [Example 6, methyl N-[5-({4-[(2S)-2-{[6-(2,4-dimethyl-1,3-thiazol-5-yl)pyridin-2-yl]formamido}propyl]piperazin-1-yl}sulfonyl)-4-methyl-1,3-thiazol-2-yl]carbamate] cannot be ordered by pIC50: greater than 6.00 for the first, greater than 6.00 for the second.

COC(=O)Nc1nc(C)c(S(=O)(=O)N2CCN(C[C@H](C)NC(=O)c3cccc(-c4cccc(CN(C)C)c4)c3)CC2)s1 [Example 7, methyl N-[5-({4-[(2S)-2-({3′-[(dimethylamino)methyl]-[1,1′-biphenyl]-3-yl}formamido)propyl]piperazin-1-yl}sulfonyl)-4-methyl-1,3-thiazol-2-yl]carbamate] and COC(=O)Nc1nc(C)c(S(=O)(=O)N2CCN(C[C@H](C)NC(=O)c3cc(-c4cccc(CN(C)C)c4)cs3)CC2)s1 [Example 10, methyl N-[5-({4-[(2S)-2-[(4-{3-[(dimethylamino)methyl]phenyl}thiophen-2-yl)formamido]propyl]piperazin-1-yl}sulfonyl)-4-methyl-1,3-thiazol-2-yl]carbamate] cannot be ordered by pIC50: 7.00 to 8.00 for the first, greater than 6.00 for the second.

COC(=O)Nc1nc(C)c(S(=O)(=O)N2CCN(C[C@H](C)NC(=O)c3cccc(-c4ccc(C)nc4)c3)CC2)s1 [Example 8, methyl N-[4-methyl-5-({4-[(2S)-2-{[3-(6-methylpyridin-3-yl)phenyl] formamido}propyl]piperazin-1-yl}sulfonyl)-1,3-thiazol-2-yl]carbamate] and COC(=O)Nc1nc(C)c(S(=O)(=O)N2CCN(C[C@H](C)NC(=O)c3cccc(-c4cn(C)nc4C(F)(F)F)c3)CC2)s1 [Example 9, methyl N-[4-methyl-5-({4-[(2S)-2-({3-[1-methyl-3-(trifluoromethyl)-1H-pyrazol-4-yl]phenyl}formamido)propyl]piperazin-1-yl}sulfonyl)-1,3-thiazol-2-yl]carbamate] cannot be ordered by pIC50: 7.00 to 8.00 for the first, greater than 6.00 for the second.

Cc1nc(C)c(-c2cccc(C(=O)N[C@@H](C)CN3CCN(S(=O)(=O)c4ccc5[nH]c(=O)sc5c4)CC3)c2)s1 [Example 11, 3-(2,4-dimethyl-1,3-thiazol-5-yl)-N-[(2S)-1-{4-[(2-oxo-2,3-dihydro-1,3-benzothiazol 6-yl)sulfonyl]piperazin-1-yl}propan-2-yl]benzamide] showed a pIC50 greater than 6.00.

Same assay, conditions: compound called inactive on receptor LPA2, read-out: IC50 on LPA2 receptor

For COC(=O)Nc1nc(C)c(S(=O)(=O)N2CCN(C[C@H](C)Nc3ncnc4ncccc34)CC2)s1 [Comparative Example A, Methyl (S)-(4-methyl-5-((4-(2-(pyrido[2,3-d]pyrimidin-4 ylamino)propyl)piperazin-1-yl)sulfonyl)thiazol-2-yl)carbamate, reference compound], the pIC50 was less than 5.52.

Reference: patent publication US20230043672A1, “AROMATIC AMIDO DERIVATIVES AS LPA RECEPTOR 2 INHIBITORS” (CHIESI FARMACEUTICI S.P.A., priority 2019, published 2023)
